From patent US6436979B1 (priority 2000, dated 2002)
Where two headings read alike, the source gives them in different places.

Test system: Phytophthora infestans
Type: in vivo
Settings: tomato leaves infected next day with zoospore suspension, evaluated after 6 days, untreated control 89% infection
[1] = conc. in the spray liquor 0.06 ppm
[2] = conc. in the spray liquor 0.25 ppm

| Structure (SMILES) | Efficacy in % of the untreated control [1] [%] | Efficacy in % of the untreated control [2] [%] |
| --- | --- | --- |
| COC(=O)N(OC)c1ccccc1COc1ccn(-c2ccc(C)cc2)n1 [Compound I.38] | 0 | 33 |
| CNC(=O)C(=NOC)c1ccccc1COc1cc(C)ccc1C [Compound III] | 0 | 33 |
| CON=C(C(=O)OC)c1ccccc1COc1ccccc1C [Compound II] | 10 | – |
| COC(=O)N(OC)c1ccccc1COc1ccn(-c2ccc(Cl)cc2)n1 [Compound I.32] | 10 | 55 |
| CC(C)OC(=O)NC(C(=O)NC(C)c1nc2ccc(F)cc2s1)C(C)C (centres unmarked) [Compound IV/1] | 21 | – |
